Test results published in US7279161B2, “Factor IX/factor IXa activating antibodies and antibody derivatives” (Baxter Aktiengesellschaft, priority 1999, dated 2007).

Key:
human FIXa = target: T1, human FIXa (Homo sapiens, UniProt P00740); experiment: Chromogenic FVIII-like (FXa generation) assay with human FIXa added; format: biochemical; details: 12 μM peptide, 2.3 nM human FIXa
T1 construct: with (+) and without (−) addition of 50 ng human FIXaβ; purchased ERL (Enzyme Research Laboratories)
Experimental: The chromogenic activity of these antibody preparations was measured in the following FXa generation kinetic assay: 10 μg of monoclonal antibody (in 25 μl) were transferred to microtiter plate wells and warmed to 37° C. Chromogenic substrate (S-2222), synthetic thrombin inhibitor (I-2581), factor IXa and FX were reconstituted in sterile water and FIXa/FX (both bovine) were mixed with phospholipids according to the supplier's protocol. Per reaction, 50 μl of the phospholipid/FIXa/FX solution were combined with 25 μl CaCl2 (25 mM) and 50 μl of the substrate/inhibitor cocktail. To start the reaction, 125 μl of the premix were added to the monoclonal antibody solution in the microtiter plates and incubated at 37° C. Absorbance at 405 nm and 490 nm of the samples was read at various times (5 min to 2 h) against a reagent blank ([…] TBS instead of monoclonal antibodies) in a Labsystems iEMS Reader MF™ microtiter plate reader using GENESIS™ software. In parallel, the same reactions were performed except that 50 ng human FIXa were added per reaction.
To analyze the FVIII-like (FIXa activating) activity of the peptides, an assay system based on a commercial available FVIII assay was developed (see examples 2 and 4). The basic principle is, that without a cofactor, FIXa will have very limited activity towards its natural substrate FX. […] The amount of FXa generated is monitored by cleavage of a chromogenic substrate. The principle of the revised chromogenic assay is described for two representative peptides: A1/3 and A1/5 (Table 2). Briefly, 25 μl aliquots of peptide stock solution (in imidazole buffer (IZ) 50 mM imidazole, 100 mM NaCl, pH 7.2) were transferred to microtiter plate wells and warmed to 37° C. Chromogenic FXa substrate (S-2222), synthetic thrombin inhibitor (I-2581), bovine FIXa and bovine FX were reconstituted in sterile water and FIXa/FX mixed with phospholipids according to the supplier's protocol. […] Per reaction, 50 μl of the phospholipid/FIXa/FX solution were combined with 25 μl CaCl2 (25 mM) and 50 μl of the substrate/inhibitor cocktail. To start the reaction, 125 μl of the premix were added to the peptide solution in the microtiter plate and incubated at 37° C. Absorbance at 405 nm and 490 nm of the samples was read at various times (5 min to 2 h) against a reagent blank in a Labsystems iEMS Reader MF™ microtiter plate reader using GENESIS™ software.

FVIII deficient plasma = experiment: aPTT based one stage clotting assay in FVIII deficient plasma; format: biochemical, human
Experimental: During normal hemostasis, FIX becomes initially activated either by the tissue factor (TF)/factor VIIa pathway or later on by activated factor XI (FXIa). Subsequent to its activation, FIXa associates on the platelet surface in a membrane bound complex with activated FVIII. […] Different amounts of antibody 193/AD3 or mouse IgG (as a control) were used in a standard aPTT based one stage clotting assay. Briefly, 100 μl of antibody-containing samples were incubated with 100 μl of FVIII deficient plasma (DP) and with 100 μl of DAPTTIN (PTT Reagent for determining activated Thromboplastin Time; IMMUNO AG) reagent, in a KC10A clotting analyzer. Where indicated, a total amount of 50 ng activated FIX was included in the reaction mixture. After a 4 minute incubation, the reaction was started by the addition of 100 μl CaCl2 (25 mM).
The peptides were also analyzed for their potential to reduce the clotting time in a FVIII deficient plasma. The aPTT based one stage clotting assay was essentially done as described (see example 6). Clotting times (time from starting the reaction to the “clot”-formation were compared either against FVIII, a buffer control (IZ) or a control peptide (scrambled version). The results of two typical clotting experiments done with two different aPTT reagents (DAPTTIN and Pathromtin SL) are shown in table 3A and table 3B.

factor IXa = target: T2, factor IXa (Bos taurus, UniProt P00741); experiment: Chromogenic FVIII assay (COATEST VIII:C/4) with the kit's FIXa/FX; format: biochemical, bovine; details: bovine FIXa and FX only; A1/3 24 μM
T2 construct: purchased Chromogenix COATEST VIII:C/4
T2 sequence (P00741 47-192 limits assumed): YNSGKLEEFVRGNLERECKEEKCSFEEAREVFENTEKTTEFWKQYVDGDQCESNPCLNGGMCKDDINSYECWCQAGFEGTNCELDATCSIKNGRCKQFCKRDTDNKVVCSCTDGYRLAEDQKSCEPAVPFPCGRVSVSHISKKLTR
T2 sequence (P00741 228-462 limits assumed): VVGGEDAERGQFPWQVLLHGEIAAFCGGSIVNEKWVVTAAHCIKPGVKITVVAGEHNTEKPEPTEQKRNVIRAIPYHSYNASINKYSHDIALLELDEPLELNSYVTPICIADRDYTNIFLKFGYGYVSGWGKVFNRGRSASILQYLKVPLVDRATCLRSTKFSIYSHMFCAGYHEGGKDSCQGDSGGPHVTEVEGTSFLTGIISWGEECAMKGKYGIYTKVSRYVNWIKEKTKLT
Experimental: In order to assay the FVIII-like activity of anti-FIXa antibodies secreted by hybridoma cells, the commercially available test-kit COATEST VIII:C/4® (Chromogenix) was employed. The assay was done essentially as described by the manufacturer with the following modifications:
To allow high throughput screening, the assay was downscaled to microtiter plate format. Briefly, 25 μl aliquots of hybridoma supernatants were transferred to microtiter plate (Costar, #3598) wells and warmed to 37° C. Chromogenic substrate (S-2222), synthetic thrombin inhibitor (I-2581), factor (F) IXa and FX were reconstituted in sterile water and FIXa/FX was mixed with phospholipids according to the supplier's protocol. Per reaction, 50 μl of the phospholipid/FIXa/FX solution were combined with 25 μl CaCl2 (25 mM) and 50 μl of the substrate/inhibitor cocktail. To start the reaction, 125 μl of the premix were added to the hybridoma supernatant in the microtiter plates and incubated at 37° C. Absorbency at 405 nm and 490 nm of the samples was read at various times (30 min to 12 h) against a reagent blank (MLW, cell culture medium instead of hybridoma supernatant) in a Labsystems iEMS Reader MF™ microtiter plate reader. FVIII-like activity of the samples was calculated by comparing the absorbency of the samples against the absorbency of a diluted FVIII reference standard (IMMUNO AG #5T4AR00) using GENESIS™ software.
Several anti-FIX/FIXa antibody producing hybridoma clones were subcloned up to four times and the resulting monoclonal hybridoma cell line used to produce monoclonal antibody containing supernatant. IgG isotype antibodies derived from these supernatants were purified over affinity columns and dialyzed against TBS (see above). IgM antibodies were used as unpurified supernatant fractions. […] Absorbance at 405 nm and 490 nm of the samples was read at various times (5 min to 6 h) against a reagent blank (cell culture medium instead of hybridoma supernatant) in a Labsystems iEMS Reader MF™ microtiter plate reader using GENESIS™ software. […]

T1 sequence (P00740 47-191 limits assumed): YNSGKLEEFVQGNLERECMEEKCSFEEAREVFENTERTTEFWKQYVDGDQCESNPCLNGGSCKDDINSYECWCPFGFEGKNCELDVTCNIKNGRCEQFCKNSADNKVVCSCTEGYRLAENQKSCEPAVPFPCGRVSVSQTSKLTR
T1 sequence (P00740 227-461 limits assumed): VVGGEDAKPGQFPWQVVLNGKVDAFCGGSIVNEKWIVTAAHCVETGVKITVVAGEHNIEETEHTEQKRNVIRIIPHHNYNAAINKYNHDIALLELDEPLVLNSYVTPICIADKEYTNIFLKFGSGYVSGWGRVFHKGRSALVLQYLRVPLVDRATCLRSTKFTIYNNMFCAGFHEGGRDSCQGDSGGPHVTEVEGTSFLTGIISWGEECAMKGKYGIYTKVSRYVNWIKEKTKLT

With RdRdRdEGGGYYVNWYFDRdRdRd [A1/3-Rd] the chromogenic activity (human FIXa) was “virtually unchanged”, the chromogenic activity (human FIXa; listed as A1/3-rd) was “did not change the FVIII-like activity” and the average clotting time (FVIII deficient plasma; Table 4, 1.25 μM, 2.2 nM FIXa) was 96 s. For the same molecule, the clotting time (FVIII deficient plasma; Table 4, 1.25 μM, 2.2 nM FIXa, duplicate 1) was 96.6 s, the clotting time (FVIII deficient plasma; Table 4, 1.25 μM, 2.2 nM FIXa, duplicate 2) was 96 s and the average clotting time (FVIII deficient plasma; Table 4, 1.25 μM, w/o FIXa) was 108 s. It also gave a clotting time (FVIII deficient plasma; Table 4, 1.25 μM, w/o FIXa, duplicate 1) of 107.5 s, a clotting time (FVIII deficient plasma; Table 4, 1.25 μM, w/o FIXa, duplicate 2) of 107.7 s and an average clotting time (FVIII deficient plasma; Table 4, 2.5 μM, 2.2 nM FIXa) of 95 s. It also gave a clotting time (FVIII deficient plasma; Table 4, 2.5 μM, 2.2 nM FIXa, duplicate 1) of 94.4 s, a clotting time (FVIII deficient plasma; Table 4, 2.5 μM, 2.2 nM FIXa, duplicate 2) of 94.7 s and an average clotting time (FVIII deficient plasma; Table 4, 2.5 μM, w/o FIXa) of 103 s. The clotting time (FVIII deficient plasma; Table 4, 2.5 μM, w/o FIXa, duplicate 1) was 102.7 s, the clotting time (FVIII deficient plasma; Table 4, 2.5 μM, w/o FIXa, duplicate 2) was 103.4 s and the average clotting time (FVIII deficient plasma; Table 4, 5 μM, 2.2 nM FIXa) was 86 s. The clotting time (FVIII deficient plasma; Table 4, 5 μM, 2.2 nM FIXa, duplicate 1) was 86 s, the clotting time (FVIII deficient plasma; Table 4, 5 μM, 2.2 nM FIXa, duplicate 2) was 85.1 s and the average clotting time (FVIII deficient plasma; Table 4, 5 μM, w/o FIXa) was 99 s. It also gave a clotting time (FVIII deficient plasma; Table 4, 5 μM, w/o FIXa, duplicate 1) of 99.2 s, a clotting time (FVIII deficient plasma; Table 4, 5 μM, w/o FIXa, duplicate 2) of 99.1 s and an average clotting time (FVIII deficient plasma; Table 4, 7.5 μM, 2.2 nM FIXa) of 82 s. The clotting time (FVIII deficient plasma; Table 4, 7.5 μM, 2.2 nM FIXa, duplicate 1) was 80.9 s, the clotting time (FVIII deficient plasma; Table 4, 7.5 μM, 2.2 nM FIXa, duplicate 2) was 82.2 s and the average clotting time (FVIII deficient plasma; Table 4, 7.5 μM, w/o FIXa) was 98 s. It also gave a clotting time (FVIII deficient plasma; Table 4, 7.5 μM, w/o FIXa, duplicate 1) of 97.6 s, a clotting time (FVIII deficient plasma; Table 4, 7.5 μM, w/o FIXa, duplicate 2) of 98.1 s and an average clotting time (FVIII deficient plasma; Table 4, 10 μM, 2.2 nM FIXa) of 76 s. It also gave a clotting time (FVIII deficient plasma; Table 4, 10 μM, 2.2 nM FIXa, duplicate 1) of 74.2 s, a clotting time (FVIII deficient plasma; Table 4, 10 μM, 2.2 nM FIXa, duplicate 2) of 77.2 s and an average clotting time (FVIII deficient plasma; Table 4, 10 μM, w/o FIXa) of 95 s. It also gave a clotting time (FVIII deficient plasma; Table 4, 10 μM, w/o FIXa, duplicate 1) of 93.5 s, a clotting time (FVIII deficient plasma; Table 4, 10 μM, w/o FIXa, duplicate 2) of 95.8 s and an average clotting time (FVIII deficient plasma; Table 4, 12.5 μM, 2.2 nM FIXa) of 73 s. The clotting time (FVIII deficient plasma; Table 4, 12.5 μM, 2.2 nM FIXa, duplicate 1) was 72.3 s, the clotting time (FVIII deficient plasma; Table 4, 12.5 μM, 2.2 nM FIXa, duplicate 2) was 73.7 s and the average clotting time (FVIII deficient plasma; Table 4, 12.5 μM, w/o FIXa) was 98 s. It also gave a clotting time (FVIII deficient plasma; Table 4, 12.5 μM, w/o FIXa, duplicate 1) of 98 s, a clotting time (FVIII deficient plasma; Table 4, 12.5 μM, w/o FIXa, duplicate 2) of 98.6 s and an average clotting time (FVIII deficient plasma; Table 4, 15 μM, 2.2 nM FIXa) of 75 s. It also gave a clotting time (FVIII deficient plasma; Table 4, 15 μM, 2.2 nM FIXa, duplicate 1) of 76.1 s, a clotting time (FVIII deficient plasma; Table 4, 15 μM, 2.2 nM FIXa, duplicate 2) of 74.4 s and an average clotting time (FVIII deficient plasma; Table 4, 15 μM, w/o FIXa) of 96 s. For the same molecule, the clotting time (FVIII deficient plasma; Table 4, 15 μM, w/o FIXa, duplicate 1) was 96.4 s, the clotting time (FVIII deficient plasma; Table 4, 15 μM, w/o FIXa, duplicate 2) was 95.4 s and the “aPTT based one-stage clotting activity” value (FVIII deficient plasma; compared with A1/3) was “somewhat reduced, was still easily detectable”.

B1: 198/A1: anti-FIX/FIXa monoclonal IgG, ECACC No. 99090924; scFv SEQ. ID. NOs. 87 and 88 (protein)
scFv: EVQLQESGGGLVKPGGSLKLSCAASGFIFSSYTMSWVRQTPEKRLEWVATISSGGSSTYYPDSVKGRFTISRDNAKNTLYLQMSSLKSEDTAMYHCTREGGGYYVNWYFDVWGAGTTLTVSSGGGGSGGRASGGGGSDIELTQSPASLAVSLGQRATISCRASESVDSYGKSFMHWYQQKPGQPPKLLIYRASNLESGIPARFSGSGSRTDFTLTINPVEADDVATYYCQQSNEDPLTFGAGTRLEIKR
modifications: scFv derived from IgG; Description of Artificial Sequence:scFv derived from hybridima cell line 198/A1
notes: anti-FIX/FIXa monoclonal IgG, ECACC No. 99090924; ID; NOs; 87 and 88
For B1, the procoagulant activity (FVIII deficient plasma; one-stage clotting assay in the presence of FIXa) was “show procoagulant activity” and the “chromogenic FVIII-like activity (FXa generation) without human FIXa” value (factor IXa) was “does not react with bovine FIXa and FX”.
